Tests used:
Format in all cases: in vivo
Conditions in all cases: foliar, compared to untreated control leaf disks, read-out: disease control
[1] = system: Puccinia recondita f. sp. tritici; assay: Puccinia recondita f. sp. tritici / wheat / leaf disc preventative (brown rust)
From the text: Puccinia recondita f. sp. tritici/Wheat/Leaf Disc Preventative (Brown Rust) Wheat leaf segments cv. Kanzler were placed on agar in multiwell plates (24-well format) and sprayed with the formulated test compound diluted in water. The leaf disks were inoculated with a spore suspension of the fungus 1 day after application.

[2] = system: Puccinia recondita f. sp. tritici; assay: Puccinia recondita f. sp. tritici / wheat / leaf disc curative (brown rust)
Procedure: Puccinia recondita f. sp. tritici/Wheat/Leaf Disc Curative (Brown Rust) Wheat leaf segments cv. Kanzler are placed on agar in multiwell plates (24-well format). The leaf segments are inoculated with a spore suspension of the fungus. Plates were stored in darkness at 19° C. and 75% rh. The formulated test compound diluted in water was applied 1 day after inoculation.

[3] = system: Blumeria graminis f. sp. tritici (Erysiphe graminis f. sp. tritici); assay: Blumeria graminis f. sp. tritici / wheat / leaf disc preventative (powdery mildew on wheat)
Summary of the method: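 Preventative leaf-disc test: compound (200 ppm) was sprayed onto cv. Kanzler wheat segments, which were dusted with conidia from infected plants 1 day after application. After incubation at 20° C and 60% rh, disease control relative to untreated segments was rated 6-8 days after application.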

Pyrenophora teres = Pyrenophora teres / barley / leaf disc preventative (net blotch)
From the text: Pyrenophora teres/Barley/Leaf Disc Preventative (Net Blotch) Barley leaf segments cv. Hasso were placed on agar in a multiwell plate (24-well format) and sprayed with the formulated test compound diluted in water. The leaf segments were inoculated with a spore suspension of the fungus 2 days after application.

Measured: pest or weed control at 200 ppm

CCN(C)/C=N/c1cc(Br)c(OCc2ccccc2S(C)(=O)=O)nc1C [Q.337]
≥ 50%: all assays above

CCN(C)/C=N/c1cc(Br)c(OCCCC(C)F)nc1C (centres unmarked) [Q.052]
≥ 50%: all assays above

CCN(C)/C=N/c1cc(Br)c(OC2CCN(S(=O)(=O)N(C)C)CC2)nc1C [Q.164]
≥ 50%: all assays above

CCN(C)/C=N/c1cc(Br)c(OCc2cccc(C#N)c2)nc1C [Q.155]
≥ 50%: all assays above

CCN(C)/C=N/c1cc(Br)c(OC(C)c2ccncc2)nc1C (centres unmarked) [Q.117]
≥ 50%: all assays above

CCN(C)/C=N/c1cc(Br)c(OC(C)(C)c2cc(C)no2)nc1C [Q.076]
≥ 50%: all assays above

CCN(C)/C=N/c1cc(Br)c(OCc2cccc(F)c2)nc1C [Q.176]
≥ 50%: all assays above

C=Cc1ccccc1COc1nc(C)c(/N=C/N(C)CC)cc1Br [Q.275]
≥ 50%: all assays above

CC(=O)N1CCC(Oc2nc(C)c(/N=C/N(C)C)cc2Br)CC1 [Q.055]
≥ 50%: all assays above

CCN(C)/C=N/c1cc(Br)c(OC(C)c2ccccc2F)nc1C (centres unmarked) [Q.299]
≥ 50%: all assays above

CCCCOc1nc(C)c(/N=C/N(C)CC)cc1Br [Q.390]
≥ 50%: all assays above

CCN(C)/C=N/c1cc(Br)c(OCC[C@H]2CC[C@@H](O)CC2)nc1C [Q.005]
≥ 50%: all assays above

Cc1ccccc1CC(C)Oc1ccc(/N=C/N(C)C(C)C)c(C)n1 (centres unmarked) [Q.355]
≥ 50%: all assays above

CCN(C)/C=N/c1cc(Br)c(OC(C)c2cccc(C(C)F)c2)nc1C (centres unmarked) [Q.292]
≥ 50%: all assays above

CCN(C)/C=N/c1cc(Br)c(OC2Cc3cc(C)c(C)cc3C2)nc1C [Q.197]
≥ 50%: all assays above

C=Cc1cccc(C(C)Oc2nc(C)c(/N=C/N(C)CC)cc2Br)c1 (centres unmarked) [Q.278]
≥ 50%: all assays above

CCN(C)/C=N/c1cc(Br)c(OCc2snc(-c3ccc(F)cc3)c2Br)nc1C [Q.125]
≥ 50%: [1] | [3] | Pyrenophora teres

Cc1nc(OC2CCC3(CC2)OCCO3)c(Br)cc1/N=C/N(C)C [Q.054]
≥ 50%: all assays above

CCN(C)/C=N/c1cc(OC)c(O[C@H]2CC[C@@H](C(C)C)CC2)nc1C [Q.248]
≥ 50%: all assays above

C/C=C(\C)CCCOc1nc(C)c(/N=C/N(C)CC)cc1Br [Q.133]
≥ 50%: all assays above

CCN(C)/C=N/c1cc(Br)c(OC(C)c2ccsc2)nc1C (centres unmarked) [Q.245]
≥ 50%: [1] | [3] | Pyrenophora teres

CCN(C)/C=N/c1cc(Br)c(OC(C)Cc2cc(F)cc(F)c2)nc1C (centres unmarked) [Q.217]
≥ 50%: all assays above

CCN(C)/C=N/c1cc(Br)c(OC/C=C\c2cccc(OC)c2)nc1C [Q.023]
≥ 50%: all assays above

CCN(C)/C=N/c1cc(Br)c(OC2CCC(Cc3ccccc3)CC2)nc1C (centres unmarked) [Q.119]
≥ 50%: all assays above

C=CC(C)Oc1nc(C)c(/N=C/N(C)CC)cc1Br (centres unmarked) [Q.394]
≥ 50%: all assays above

CCN/C=N/c1cc(Br)c(OCCCC(C)C)nc1C [Q.004]
≥ 50%: all assays above

CCN(C)/C=N/c1cc(Br)c(O[C@H](C)c2cc(F)cc(F)c2)nc1C [Q.261]
≥ 50%: all assays above

CCN(C)/C=N/c1cc(Br)c(OCCc2ccc(C)cc2)nc1C [Q.364]
≥ 50%: all assays above

CCN(C)/C=N/c1cc(Br)c(OCC2CC=CCC2)nc1C (centres unmarked) [Q.029]
≥ 50%: all assays above

CCN(C)/C=N/c1cc(Br)c(O[C@H]2C[C@@H]3ON=C(C)[C@@H]3C2)nc1C [Q.070]
≥ 50%: all assays above

CCN(C)/C=N/c1cc(Br)c(OCc2ccc(C)cc2C)nc1C [Q.324]
≥ 50%: all assays above

CCN(C)/C=N/c1ccc(OC(C)Cc2ccccc2C)nc1C (centres unmarked) [Q.354]
≥ 50%: all assays above

CCN(C)/C=N/c1cc(Br)c(OC2CCN(S(C)(=O)=O)CC2)nc1C [Q.163]
≥ 50%: all assays above

CCN(C)/C=N/c1cc(Br)c(OC(C)Cc2ccccc2C)nc1C (centres unmarked) [Q.353]
≥ 50%: all assays above

CCN(C)/C=N/c1cc(Br)c(OCCCc2ccccc2)nc1C [Q.100]
≥ 50%: all assays above

CCN(C)/C=N/c1cc(Br)c(OC2CCCC(Oc3ccccc3)C2)nc1C (centres unmarked) [Q.241]
≥ 50%: all assays above

CCN(C)/C=N/c1cc(Br)c(OC(C)c2cc(-c3ccccc3)no2)nc1C (centres unmarked) [Q.075]
≥ 50%: all assays above

C=CCOc1nc(C)c(/N=C/N(C)CC)cc1Br [Q.393]
≥ 50%: all assays above

COc1cc(COc2ccc(/N=C/N(C)C(C)C)c(C)n2)cc(OC)c1 [Q.377]
≥ 50%: [1] | [2] | Pyrenophora teres

CCN(C)/C=N/c1cc(Br)c(OC2Cc3cc(Br)c(OC)cc3C2)nc1C (centres unmarked) [Q.202]
≥ 50%: [1] | [3] | Pyrenophora teres

C=C(C)CC(CC(=C)C)Oc1nc(C)c(/N=C/N(C)CC)cc1Br [Q.232]
≥ 50%: [1] | [2] | Pyrenophora teres

C#Cc1cc(/N=C/N(C)CC)c(C)nc1O[C@H]1CC[C@H](C(C)C)CC1 [Q.253]
≥ 50%: [1] | [2] | Pyrenophora teres

CCN(C)/C=N/c1cc(Br)c(OC2CCNCC2)nc1C [Q.053]
≥ 50%: [3] | Pyrenophora teres

Reference: US9326513B2, “Fungicidal compositions” (Syngenta Participations AG, priority 2011, dated 2016)
